# Tests used:
# [1] = system: A375 cells (melanoma); assay: Sulforhodamine B (SRB) antiproliferative assay, A375; type: cell-based; conditions: Homo sapiens, A-375, A375, 48 h, mean ± SEM of four to six independent experiments
# Procedure: (§1) The antiproliferative properties of andrographolide and all prepared derivatives (2–26) were evaluated against a panel of different cancer cell lines, including human pancreatic ductal adenocarcinoma (PANC-1), colorectal adenocarcinoma (HCT116), melanoma (A375), breast adenocarcinoma (MCF-7) and a non-tumorigenic colon (CCD-18Co) cell line using the sulforhodamine B assay.
# (§2) Human breast adenocarcinoma MCF-7, pancreatic ductal adenocarcinoma PANC-1, melanoma A375, and non-tumorigenic colon CCD-18Co cell lines were purchased from ATCC (Rockville, MD, USA). Human colorectal adenocarcinoma HCT116 cells were kindly provided by B. Vogelstein (The Johns Hopkins Kimmel Cancer Center, Baltimore, MD, USA). Tumor cells were routinely cultured in RPMI-1640 medium with UltraGlutamine from Biowest (VWR, Carnaxide, Portugal) supplemented with 10% fetal bovine serum (FBS) from Biowest (VWR, Carnaxide, Portugal), except for the PANC-1 cells, which were grown in DMEM (4.5 g/L glucose) with stable L-glutamine and sodium pyruvate and supplemented with 10% FBS. The non-tumorigenic CCD-18Co cells were cultured in EMEM (Lonza, VWR, Carnaxide, Portugal), supplemented with 10% FBS. All cells were incubated at 37 °C in a humidified atmosphere of 5% CO2. Routine mycoplasma testing was performed using the MycoAlert™ PLUS mycoplasma detection kit (Lonza).
# (§3) For the evaluation of the compound effect on cell proliferation, human cell lines were seeded in 96-well plates at a density of 5.0 × 10^3 (HCT116, MCF-7, PANC-1, A375, and CCD-18Co) cells per well, for 24 h. Cells were then treated with serial dilutions of the compound (ranging from 0.63 to 30 µM), for an additional 48 h incubation period. The growth inhibitory effects were assessed by SRB assay, as described in [58], and the half-maximal inhibitory concentration (IC50 values) were determined for each cell line using the GraphPad Prism software version 7.0 (La Jolla, CA, USA). Culture medium containing a maximum of 0.05% dimethyl sulfoxide (DMSO) was used as negative control.
# [2] = system: cleaved PARP-1; assay: Western blot, cleaved PARP-1; type: cell-based, human; conditions: PANC-1, 3 and 6 μM, 48 h
# Source text: To further investigate the mechanism of action of the triazole derivative 12, an apoptosis analysis was subsequently performed in PANC-1 cells. The early stages of apoptosis are characterized by the disruption of membrane asymmetry and the translocation of phosphatidylserine from the inner to the outer leaflet of the plasma membrane, which can be detected using Annexin V-FITC, a protein with high affinity for phosphatidylserine. In the later stages of apoptosis, the cell membrane loses its integrity, allowing propidium iodide (PI) to penetrate into the cell. Thus, PANC-1 cells treated with compound 12 at 3 and 6 μM for 48 h were analyzed by flow cytometry after Annexin V-FITC and PI staining (Figure 1B, bottom panel; and Figure 1D). This analysis can distinguish and quantify viable cells (annexin V−, PI−), early apoptotic cells (annexin V+, PI−), late apoptotic cells (annexin V+, PI+), and necrotic cells (annexin V−/PI+). […]
# PANC-1 (1.5 × 10^5 cells/well) were seeded in six-well plates, allowed to adhere overnight, and treated with 3 µM and 6 µM of compound 12 for 48 h. Protein lysates were obtained in RIPA buffer with protease inhibitors (Sigma-Aldrich, Lisbon, Portugal) and quantified using Pierce® bicinchoninic acid (BCA) protein assay reagents (Thermo Fisher Scientific, Porto Salvo, Portugal). […]
# [3] = system: PANC-1 cells (pancreatic ductal adenocarcinoma); assay: Sulforhodamine B (SRB) antiproliferative assay, PANC-1; type: cell-based, human
# Procedure: as §1, §2, §3
# [4] = system: PANC-1 cells; assay: Drug combination assay with 5-fluorouracil (SRB, CompuSyn); type: cell-based, human; conditions: PANC-1, 48 h
# Procedure: Using the CompuSyn software (version 1.0), a multiple drug effect analysis was performed for each combination, to determine combination index (CI) and dose-reduction index (DRI) values. CI values indicate the effect of combining multiple drugs as synergistic (CI < 1), additive (CI = 1), or antagonistic (CI > 1). DRI values represent the fold decrease in the dose of a drug needed when in combination to achieve the same efficacy as the drug alone. DRI values > 1 are favorable given the concern for toxicity when combining multiple drugs.
# The effect on cell proliferation was analyzed by SRB assay. […] Synergistic interactions of drugs were indicated as CI < 1, antagonist interactions as CI > 1.1, and additive effects as 1 < CI < 1.1.
# [5] = system: PANC-1 cells; assay: Cell cycle analysis by flow cytometry (propidium iodide); type: cell-based, human; conditions: PANC-1, 3 μM and 6 μM, 48 h
# Procedure: (§4) To elucidate the antiproliferative activity of compound 12, cell cycle analysis was performed in the PANC-1 cancer cell line. The cell cycle is a highly controlled process where cellular DNA is replicated and then equally partitioned in two daughter cells. The cell cycle is composed of two distinct phases: the interphase, where the cell grows and undergoes three distinct periods—the G1 (pre-DNA synthesis), S (DNA synthesis), and G2 (pre-division) phases—and mitosis, where cell undergoes division. The newly formed daughter cells then enter the preparatory phases of interphase, and start the G0 phase (quiescence). […] Thus, PANC-1 cells were treated with compound 12 at 3 and 6 µM for 48 h and then analyzed by flow cytometry (Figure 1B,C).
# The analyses were performed as described in the literature. In particular, 1.5 × 10^5 PANC-1 cells/well were seeded in 6-well plates and allowed to adhere overnight, followed by treatment with 3 µM and 6 µM of compound 12 for 48 h. For cell cycle analysis, cells were stained with propidium iodide (Sigma-Aldrich) and subjected to flow cytometry. Cell cycle phases were identified and quantified using the FlowJo X 10.0.7 software (Treestar, Ashland, OR, USA). For apoptosis analysis, cells were stained using the Annexin V-FITC Apoptosis Detection Kit I from BD Biosciences (Enzifarma, Porto, Portugal), according to the manufacturer’s instructions. […]
# [6] = system: HCT116 cells (colorectal adenocarcinoma); assay: Sulforhodamine B (SRB) antiproliferative assay, HCT116; type: cell-based; conditions: Homo sapiens, HCT-116, HCT116, 48 h, mean ± SEM of four to six independent experiments
# Procedure: as §1, §2, §3
# [7] = system: p21; assay: Western blot, p21; type: cell-based, human; conditions: PANC-1, 3 and 6 μM, 48 h
# Procedure: as §4
# PANC-1 (1.5 × 10^5 cells/well) were seeded in six-well plates, allowed to adhere overnight, and treated with 3 µM and 6 µM of compound 12 for 48 h. Protein lysates were obtained in RIPA buffer with protease inhibitors (Sigma-Aldrich, Lisbon, Portugal) and quantified using Pierce® bicinchoninic acid (BCA) protein assay reagents (Thermo Fisher Scientific, Porto Salvo, Portugal). […] The signal was detected with enhanced chemiluminescence (ECL) (Amersham, GE Healthcare Life Sciences, Enzymatic, Portugal) using the ChemiDoc^TM MP Imaging system (BioRad Laboratories, Amadora, Portugal).
smiles,measurement,setting,value
"C=C1CC[C@@H]2[C@](C)(COC(C)=O)[C@H](OC(C)=O)CC[C@@]2(C)[C@@H]1C[C@H](C1=CCOC1=O)n1cc(-c2ccc(Br)cc2)nn1 [Compound 12, (12R)-4-bromophenyl-1,2,3-triazole-3,19-diacetoxy-14-deoxy-andrographolide]",IC50,[1],1.7 µM
same,levels of cleaved PARP-1,[2],significant increase in the levels of cleaved PARP-1
same,IC50,"[3]; Homo sapiens, PANC-1, 48 h, SRB, mean ± SEM of four to six independent experiments",3.4 ± 0.9 µM
same,IC10,"[3]; PANC-1, concentration which has no significant effect on cell proliferation",1350 nM
same,combination index (CI),[4]; 5-FU 3.75 µM + 1.35 µM of compound 12,0.87
same,combination index (CI),[4]; 5-FU 7.5 µM + 1.35 µM of compound 12,0.90
same,G2/M population compared to the control,[5],significant increase in the G2/M population
same,IC50,[6],1.7 ± 0.2 µM
same,expression of p21,[7],increased the expression of p21 in a dose-dependent manner

# Source: article PMC12114840, “Exploring the Anticancer Properties of 1,2,3-Triazole-Substituted Andrographolide Derivatives” (Pharmaceuticals, 2025)
